Tests used:
HT29 cytosolic GST = HT29 cytosolic GST (Homo sapiens, UniProt P09211); assay: Spectrophotometric GST activity analysis in HT29 cell extracts (CDNB/glutathione); type: biochemical; conditions: HT29 cell extract
Description: GST catalyzes the conjugation of CDNB with glutathione and results in a CDNB-glutathione product with a strong molar absorption at 340 nm. The change of absorption is monitored for 5 min.
1 x 10^6 cells are collected and washed once with ice-cold phosphate-buffered saline at 1000 rpm for 10 min at 4°C. Cell pellets are resuspended in 200 µl ice-cold phosphate-buffered saline, and are sonicated for 2 min on ice. The sonicate is then centrifuged at 11750 g, 4°C for 15 min in an Eppendorf Centrifuge, and the supernatant is assayed for GST activity.

MCF-7 ADR cells = assay: Radiosensitizing activity assay, surviving cells counted by trypan blue staining; type: cell-based, Human; conditions: for radiosensitization: MCF-7 ADR cells (mutant p53, high GST content); for % living cells relative to control without drug treatment: MCF-7ADR
Description: (§1) Biological assay for radiosensitizing activity of MDM2 antagonistic compounds: Human tumor cell lines containing wild-type p53 and low levels of GST, such as MCF7 (breast carcinoma) or mutant p53 and a high GST content, such as MCF7 ADR (adriamycin-resistant breast carcinoma) are cultivated in RPMI medium, supplemented with 10% fetal calf serum to a semi-confluent state.
In order to determine the radiosensitizing activity of selected compounds on these cells a minimal toxic dose was determined as 2Gy (gray: J/kg) with a ^137Cesium source at room temperature. […] Cells were trypsinized and seeded in appropriate dilutions into 6 well plates. Surviving cells were trypsinized after 12-13 days and cell number was determined by staining with trypane blue for living/dead cells. The protocol was established according to Khil et al., 1996, Int. J. Rad. Oncol. Biol. Phys. 34, 375-380.

MCF-7 cells = assay: as above; type: cell-based, Human
Description: as §1
In order to determine the radiosensitizing activity of selected compounds on these cells a minimal toxic dose was determined as 2Gy (gray: J/kg) with a ^137Cesium source at room temperature. Following irradiation of monolayer cells in exponential growth phase with 2 Gy, cells were incubated with various concentrations of the selected compounds for 2-6 h. Cells were trypsinized and seeded in appropriate dilutions into 6 well plates. Surviving cells were trypsinized after 12-13 days and cell number was determined by staining with trypane blue for living/dead cells. The protocol was established according to Khil et al., 1996, Int. J. Rad. Oncol. Biol. Phys. 34, 375-380.

MDM2 = molecular target: T1, MDM2 (Homo sapiens, UniProt Q00987); assay: Interaction of compounds with MDM2; type: binding
T1 construct: 40 µl of mdm2 1-213 (100nM in PBST) were mixed with 40 µl of the sample; made in house
T1 sequence (Q00987 1-213): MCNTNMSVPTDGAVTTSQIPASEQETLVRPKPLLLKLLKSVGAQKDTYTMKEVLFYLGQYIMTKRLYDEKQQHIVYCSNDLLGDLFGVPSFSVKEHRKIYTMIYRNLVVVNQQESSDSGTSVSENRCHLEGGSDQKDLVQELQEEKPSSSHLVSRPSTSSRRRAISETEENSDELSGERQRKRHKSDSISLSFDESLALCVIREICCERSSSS
Description: BIACORE analysis of the interaction between MDM2 and p53: To quantify the effect of selected compounds on the p53 binding properties of MDM2 protein biosensor measurements using BIACORE 2000 are performed. BIACORE 2000 is a biosensor system delivered from BIACORE AB. The technology of this biosensor is based on the optical phenomenon of surface plasmon resonance (SRP), which detects changes in refractive index of the solution close to the surface of the sensor chip. The refractive index is directly correlated to the mass concentration in the layer and increases when analyte binds to a surface immobilized ligand. Experiments are performed under continuous flow conditions. The SPR response expressed in resonance units (RU) is recorded continuously versus time resulting in a sensorgram. When one interaction is completed, the surface can be regenerated using solutions which remove bound analyte without affecting the activity of the bound ligand. […] After additional 4 minutes rinsing the surface with PBST buffer, a signal was recorded. By comparing the signals of the samples with those of buffer, the inhibitory effects of the samples could be evaluated. […]

[1] = 2 Gy + drug 20 µg/ml, drug incubation time following irradiation 0 hours
[2] = 2 Gy + drug 20 µg/ml, drug incubation time following irradiation 2 hours
[3] = 2 Gy + drug 20 µg/ml, drug incubation time following irradiation 6 hours
[4] = drug alone 20 µg/ml, drug incubation time 0 hours
[5] = drug alone 20 µg/ml, drug incubation time 2 hours
[6] = drug alone 20 µg/ml, drug incubation time 6 hours

Chain of HT29 cytosolic GST (P09211 2-210): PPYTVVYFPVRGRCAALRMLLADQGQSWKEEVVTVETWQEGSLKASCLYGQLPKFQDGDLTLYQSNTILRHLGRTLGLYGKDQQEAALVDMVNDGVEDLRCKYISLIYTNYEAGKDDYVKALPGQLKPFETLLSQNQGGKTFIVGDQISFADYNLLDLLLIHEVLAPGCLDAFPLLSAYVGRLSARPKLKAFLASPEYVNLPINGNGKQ

Structure (SMILES) | radiosensitization (MCF-7 ADR cells) | % living cells relative to control without drug treatment (MCF-7 ADR cells; [1]) [%] | % living cells relative to control without drug treatment (MCF-7 ADR cells; [2]) [%] | % living cells relative to control without drug treatment (MCF-7 ADR cells; [3]) [%] | % living cells relative to control without drug treatment (MCF-7 ADR cells; [4]) [%] | % living cells relative to control without drug treatment (MCF-7 ADR cells; [5]) [%] | % living cells relative to control without drug treatment (MCF-7 ADR cells; [6]) [%] | % living cells relative to control without drug treatment (MCF-7 cells; [1]) [%] | % living cells relative to control without drug treatment (MCF-7 cells; [2]) [%] | % living cells relative to control without drug treatment (MCF-7 cells; [3]) [%] | % living cells relative to control without drug treatment (MCF-7 cells; [4]) [%] | % living cells relative to control without drug treatment (MCF-7 cells; [5]) [%] | % living cells relative to control without drug treatment (MCF-7 cells; [6]) [%] | enhancement of irradiation by the drug (factor) (MCF-7 cells; drug incubated for 2 hours) | enhancement of irradiation by the drug (factor) (MCF-7 cells; drug incubated for 6 hours) | further results
O=C(O)COc1ccc(C(=O)/C=C/c2ccc(Cl)c(Cl)c2)cc1 [LSM 83177, 3,4-dichloro-4'-(carboxymethoxy)chalcone] | Radiosensitizing activity independent of the GST content of the target cell can be observed | 100 | 72.8 | 48.8 | 100 | 87.2 | 85.7 | 100 | 41.8 | 17 | 100 | 64.1 | 36.4 | 1.5 | 2 | activity at 0.2 µg/mL (HT29 cytosolic GST; concentration 0,2 µg/ml): 100%; activity at 0.04 µg/mL (HT29 cytosolic GST; concentration 0,04 µg/ml): 100%; activity at 0.4 µg/mL (HT29 cytosolic GST; concentration 0,4 µg/ml): 100%; activity at 1 µg/mL (HT29 cytosolic GST; concentration 1 µg/ml): 100%; activity at 2 µg/mL (HT29 cytosolic GST; concentration 2 µg/ml): 100%; activity at 5 µg/mL (HT29 cytosolic GST; concentration 5 µg/ml): 73%; activity at 8 µg/mL (HT29 cytosolic GST; concentration 8 µg/ml): 46%; activity at 10 µg/mL (HT29 cytosolic GST; concentration 10 µg/ml): 26%; activity at 20 µg/mL (HT29 cytosolic GST; concentration 20 µg/ml): 0%; activity at 1.3 µg/mL (HT29 cytosolic GST; concentration 1,3 µg/ml): 100%; activity at 2.5 µg/mL (HT29 cytosolic GST; concentration 2,5 µg/ml): 95%
C=C(CC)C(=O)c1ccc(OCC(=O)O)c(Cl)c1Cl [ethacrynic acid, reference compound] | does not mediate any radiosensitization | 100 | 82.5 | 133.6 | 100 | 88.9 | 99 | 100 | 42.7 | 20.5 | 100 | 52.3 | 43.1 | 1.5 | 2 | interaction with MDM2 (MDM2): interaction of ethacrynic acid with MDM2 was surprisingly observed

Reference: EP0947494A1, “Derivatives of phenoxy acetic acid and phenoxymethyltetrazole having antitumor activity” (F. HOFFMANN-LA ROCHE AG, priority 1998, dated 1999)
